This is an account of results in US20240294508A1, “RIP1 MODULATORS INCLUDING AZETIDINE CYCLIC UREAS, PREPARATIONS, AND USES THEREOF” (SIRONAX LTD., priority 2021, published 2024).

SMILES strings stand for the structures.

In the assay the test system is HT-29 cells. Nature of the assay: HT29 cells 0FBS assay in vitro: TNF-α/SMAC mimetic/zVAD-FMK induced necroptosis, CellTiter-Glo cell viability (RIP1 inhibitory activity). It counts as cell-based. The note with it: Homo sapiens, FBS free medium, TNF-α (10 ng/ml) + SMAC mimetic (6 uM) + zVAD-FMK (10 μM), 20 hours, geometric mean EC50. The procedure, abridged:
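HT-29 cells (5,000/well, overnight) switched to FBS-free McCOY's 5A with TNF-α (10 ng/ml), SMAC mimetic (6 uM) and zVAD-FMK (10 μM) to drive necroptosis, plus compound, for 20 hours at 37° C. Viability read by CellTiter-Glo luminescence; geometric mean EC50 from 10-point duplicate dose-response.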
On the technique in general: In ATP-based viability assays light output follows the ATP content of the culture.
As for `Cn1nccc1-c1cnc(OC2CN(C(=O)N3N=CC[C@H]3c3cc(F)cc(F)c3)C2)s1` [Compound 153, (S)-(5-(3,5-difluorophenyl)-4,5-dihydro-1H-pyrazol-1-yl)(3-((5-(1-methyl-1H-pyrazol-5-yl)thiazol-2-yl)oxy)azetidin-1-yl)methanone], the EC50 was in the range of 0.1 to 100 nM.

With `Cc1nc(C2CC=NN2C(=O)N2CC(Oc3cc(-c4ccnn4C)c(F)cc3F)C2)cs1` (centres unmarked) [Compound 132, (3-(2,4-difluoro-5-(1-methyl-1H-pyrazol-5-yl)phenoxy)azetidin-1-yl)(5-(2-methylthiazol-4-yl)-4,5-dihydro-1H-pyrazol-1-yl)methanone], the EC50 fell in the range of 0.1 to 100 nM.

With `Cn1nccc1-c1ncc(F)c(OC2CN(C(=O)N3N=CC[C@H]3c3cc(F)cc(C#N)c3)C2)n1` [Compound 1, (S)-3-fluoro-5-(1-(3-((5-fluoro-2-(1-methyl-1H-pyrazol-5-yl)pyrimidin-4-yl)oxy)azetidine-1-carbonyl)-4,5-dihydro-1H-pyrazol-5-yl)benzonitrile], the EC50 lay within 0.1 to 100 nM.

`Cc1c(N)nn(C)c1-c1ccc(F)c(OC2CN(C(=O)N3N=CC[C@H]3c3cncc(F)c3)C2)n1` [Compound 67, (S)-(3-((6-(3-amino-1,4-dimethyl-1H-pyrazol-5-yl)-3-fluoropyridin-2-yl)oxy)azetidin-1-yl)(5-(5-fluoropyridin-3-yl)-4,5-dihydro-1H-pyrazol-1-yl)methanone]: the EC50 lay in the range of 0.1 to 100 nM.

Regarding `Cc1cnc([C@@H]2CC=NN2C(=O)N2CC(Oc3cc(-c4c(C)cnn4C)ncc3F)C2)s1` [Compound 138, (S)-(3-((2-(1,4-dimethyl-1H-pyrazol-5-yl)-5-fluoropyridin-4-yl)oxy)azetidin-1-yl)(5-(5-methylthiazol-2-yl)-4,5-dihydro-1H-pyrazol-1-yl)methanone], the EC50 is 0.1 to 100 nM.

Take `Cn1ncc(Cl)c1-c1cc(OC2CN(C(=O)N3N=CC[C@H]3c3cncc(C#N)c3)C2)c(F)cn1` [Compound 44]: the EC50 was in the range of 0.1 to 100 nM.

Turning to `Cc1nn(-c2cc(OC3CN(C(=O)N4N=CC[C@H]4c4cc(F)cc(C#N)c4)C3)c(F)cn2)c(C)c1C(N)=O` [Compound 70, (S)-1-(4-((1-(5-(3-cyano-5-fluorophenyl)-4,5-dihydro-1H-pyrazole-1-carbonyl)azetidin-3-yl)oxy)-5-fluoropyridin-2-yl)-3,5-dimethyl-1H-pyrazole-4-carboxamide], the EC50 was 0.1 to 100 nM.

Regarding `Cn1ncc(C#N)c1-c1ccc(F)c(OC2CN(C(=O)N3N=CC[C@H]3c3cncc(C#N)c3)C2)n1` [Compound 41, (S)-5-(1-(3-((6-(4-cyano-1-methyl-1H-pyrazol-5-yl)-3-fluoropyridin-2-yl)oxy)azetidine-1-carbonyl)-4,5-dihydro-1H-pyrazol-5-yl)nicotinonitrile], the EC50 was 0.1 to 100 nM.

With `Cc1nn(CC(N)=O)c(C)c1-c1cc(OC2CN(C(=O)N3N=CC[C@H]3c3cc(F)cc(C#N)c3)C2)c(F)cn1` [Compound 21, (S)-2-(4-(4-((1-(5-(3-cyano-5-fluorophenyl)-4,5-dihydro-1H-pyrazole-1-carbonyl)azetidin-3-yl)oxy)-5-fluoropyridin-2-yl)-3,5-dimethyl-1H-pyrazol-1-yl)acetamide], the half-maximal effective concentration (EC50) is 0.1 to 100 nM.

Take `Cc1cnn(C)c1-c1cc(OC2CN(C(=O)N3N=CCC3c3nc(C)c(C)s3)C2)c(F)cn1` (centres unmarked) [Compound 144, (3-((2-(1,4-dimethyl-1H-pyrazol-5-yl)-5-fluoropyridin-4-yl)oxy)azetidin-1-yl)(5-(4,5-dimethylthiazol-2-yl)-4,5-dihydro-1H-pyrazol-1-yl)methanone]: the EC50 is 100 to 1000 nM.

On to `Cc1cnn(C)c1-c1csc(OC2CN(C(=O)N3N=CC[C@H]3c3cc(F)cc(F)c3)C2)n1` [Compound 146, (S)-(5-(3,5-difluorophenyl)-4,5-dihydro-1H-pyrazol-1-yl)(3-((4-(1,4-dimethyl-1H-pyrazol-5-yl)thiazol-2-yl)oxy)azetidin-1-yl)methanone], for which the EC50 was in the range of 0.1 to 100 nM.

As to `Cc1ncsc1-c1cc(OC2CN(C(=O)N3N=CC[C@H]3c3cc(F)cc(C#N)c3)C2)c(F)cn1` [Compound 18, (S)-3-fluoro-5-(1-(3-((5-fluoro-2-(4-methylthiazol-5-yl)pyridin-4-yl)oxy)azetidine-1-carbonyl)-4,5-dihydro-1H-pyrazol-5-yl)benzonitrile], the EC50 is 0.1 to 100 nM.

`Cn1ncc(Cl)c1-c1ncc(F)c(OC2CN(C(=O)N3N=CC[C@H]3c3cncc(F)c3)C2)n1` [Compound 32, (S)-(3-((2-(4-chloro-1-methyl-1H-pyrazol-5-yl)-5-fluoropyrimidin-4-yl)oxy)azetidin-1-yl)(5-(5-fluoropyridin-3-yl)-4,5-dihydro-1H-pyrazol-1-yl)methanone]: the EC50 fell in the range of 0.1 to 100 nM.

On to `Cn1ncc(C#N)c1-c1ccc(F)c(OC2CN(C(=O)N3N=CC[C@H]3c3cncc(F)c3)C2)n1` [Compound 34, (S)-5-(5-fluoro-6-((1-(5-(5-fluoropyridin-3-yl)-4,5-dihydro-1H-pyrazole-1-carbonyl)azetidin-3-yl)oxy)pyridin-2-yl)-1-methyl-1H-pyrazole-4-carbonitrile], for which the EC50 is 0.1 to 100 nM.

As to `Cn1ccnc1-c1cc(OC2CN(C(=O)N3N=CC[C@H]3c3cc(F)cc(C#N)c3)C2)c(F)cn1` [Compound 36, (S)-3-fluoro-5-(1-(3-((5-fluoro-2-(1-methyl-1H-imidazol-2-yl)pyridin-4-yl)oxy)azetidine-1-carbonyl)-4,5-dihydro-1H-pyrazol-5-yl)benzonitrile], the EC50 lay in the range of 0.1 to 100 nM.

`Cc1cnn(C)c1-c1cc(OC2CN(C(=O)N3N=CC[C@H]3c3cncc(F)c3)C2)c(F)cn1` [Compound 30, (S)-(3-((2-(1,4-dimethyl-1H-pyrazol-5-yl)-5-fluoropyridin-4-yl)oxy)azetidin-1-yl)(5-(5-fluoropyridin-3-yl)-4,5-dihydro-1H-pyrazol-1-yl)methanone]: the half-maximal effective concentration (EC50) was 0.1 to 100 nM.

`CNC(=O)c1c(C)nn(-c2cc(OC3CN(C(=O)N4N=CC[C@H]4c4cncc(C#N)c4)C3)c(F)cn2)c1C` [Compound 81, (S)-1-(4-((1-(5-(5-cyanopyridin-3-yl)-4,5-dihydro-1H-pyrazole-1-carbonyl)azetidin-3-yl)oxy)-5-fluoropyridin-2-yl)-N,3,5-trimethyl-1H-pyrazole-4-carboxamide]: the EC50 is 100 to 1000 nM.

In the case of `Cc1nn(-c2cc(OC3CN(C(=O)N4N=CC[C@H]4c4cccc(F)c4)C3)c(F)cn2)c(C)c1C(=O)NC1COC1` [Compound 77, (S)-1-(5-fluoro-4-((1-(5-(3-fluorophenyl)-4,5-dihydro-1H-pyrazole-1-carbonyl)azetidin-3-yl)oxy)pyridin-2-yl)-3,5-dimethyl-N-(oxetan-3-yl)-1H-pyrazole-4-carboxamide], the EC50 was 0.1 to 100 nM.

For `Cc1nn(-c2cc(OC3CN(C(=O)N4N=CC[C@@H]4c4cccc(F)c4)C3)c(F)cn2)c(C)c1C(N)=O` [Compound 98, (R)-1-(5-fluoro-4-((1-(5-(3-fluorophenyl)-4,5-dihydro-1H-pyrazole-1-carbonyl)azetidin-3-yl)oxy)pyridin-2-yl)-3,5-dimethyl-1H-pyrazole-4-carb oxamide], the concentration giving a half-maximal response (EC50) fell in the range of 1000 to 10000 nM.

For `Cc1cnn(C)c1-c1nc(OC2CN(C(=O)N3N=CC[C@H]3c3cc(F)cc(F)c3)C2)sc1CO` [Compound 157, (S)-(5-(3,5-difluorophenyl)-4,5-dihydro-11H-pyrazol-1-yl)(3-((4-(1,4-dimethyl-1H-pyrazol-5-yl)-5-(hydroxymethyl)thiazol-2-yl)oxy)azetidin-1-yl)methanone], the EC50 fell in the range of 1000 to 10000 nM.

Take `Cc1nn(-c2cc(OC3CN(C(=O)N4N=CC[C@H]4c4cc(F)cc(C#N)c4)C3)c(F)cn2)c(C)c1C(=O)O` [Compound 83, (S)-1-(4-((1-(5-(3-cyano-5-fluorophenyl)-4,5-dihydro-1H-pyrazole-1-carbonyl)azetidin-3-yl)oxy)-5-fluoropyridin-2-yl)-3,5-dimethyl-1H-pyrazole-4-carboxylic acid]: the 50% effective concentration (EC50) was 0.1 to 100 nM.

Turning to `Cc1cnn(C)c1-c1ncc(F)c(OC2CN(C(=O)N3N=CC[C@H]3c3cc(F)cc(C#N)c3)C2)n1` [Compound 25, (S)-3-(1-(3-((2-(1,4-dimethyl-1H-pyrazol-5-yl)-5-fluoropyrimidin-4-yl)oxy)azetidine-1-carbonyl)-4,5-dihydro-1H-pyrazol-5-yl)-5-fluorobenzonitrile], the EC50 was in the range of 0.1 to 100 nM.

On to `Cc1nc(C2CC=NN2C(=O)N2CC(Oc3nc(-c4c(C)cnn4C)c(F)cc3F)C2)cs1` (centres unmarked) [Compound 122, (3-((6-(1,4-dimethyl-1H-pyrazol-5-yl)-3,5-difluoropyridin-2-yl)oxy)azetidin-1-yl)(5-(2-methylthiazol-4-yl)-4,5-dihydro-11H-pyrazol-1-yl)methanone], for which the EC50 lay in the range of 0.1 to 100 nM.

Turning to `CCn1nccc1-c1cc(OC2CN(C(=O)N3N=CC[C@H]3c3cc(F)cc(C#N)c3)C2)c(F)cn1` [Compound 12, (S)-3-(1-(3-((2-(1-ethyl-1H-pyrazol-5-yl)-5-fluoropyridin-4-yl)oxy)azetidine-1-carbonyl)-4,5-dihydro-1H-pyrazol-5-yl)-5-fluorobenzonitrile], the EC50 fell in the range of 0.1 to 100 nM.

Turning to `Cc1cnn(C)c1-c1nc(OC2CN(C(=O)N3N=CCC3c3cc(F)cc(F)c3)C2)c(F)cc1F` (centres unmarked) [Compound 158, (5-(3,5-difluorophenyl)-4,5-dihydro-1H-pyrazol-1-yl)(3-((6-(1,4-dimethyl-1H-pyrazol-5-yl)-3,5-difluoropyridin-2-yl)oxy)azetidin-1-yl)methanone], the EC50 was in the range of 0.1 to 100 nM.

Turning to `Cc1nn(-c2cc(OC3CN(C(=O)N4N=CC[C@H]4c4cc(F)cc(Cl)c4)C3)c(F)cn2)c(C)c1C(N)=O` [Compound 133, (S)-1-(4-((1-(5-(3-chloro-5-fluorophenyl)-4,5-dihydro-1H-pyrazole-1-carbonyl)azetidin-3-yl)oxy)-5-fluoropyridin-2-yl)-3,5-dimethyl-1H-pyrazole-4-carboxamide], the EC50 lay in the range of 0.1 to 100 nM.

One may read the EC50 as the concentration that produces a half-maximal response.
